Results reported in patent US20240092800A1, “USP13 INHIBITORS AND METHODS OF USE THEREOF” (GEORGETOWN UNIVERSITY, priority 2021, published 2024).

Columns and labels:
human alpha-synuclein = experiment: Alpha-synuclein levels via ELISA in alpha-synuclein-transfected SHSY5Y cells; type: cell-based; conditions: 5 hours, concentration between 1 and 0.1 nM
Experimental: (§1) Cell lines, transfection, and treatment.
Alpha-Synuclein Enzyme-Linked Immunosorbent Assay (ELISA). ELISAs for total human alpha-synuclein (Millipore; Burlington, MA) were conducted using Milliplexed ELISA. Briefly, Xmap technology uses magnetic microspheres that are internally coded with two fluorescent dyes. Through precise combinations of these two dyes, multiple proteins are simultaneously measured within a sample. Each of these spheres is coated with a specific capture antibody. The capture antibody binds to the detection antibody and a reporter molecule, completing the reaction on the surface of the bead.
(§2) A total of 25 μL soluble protein was incubated overnight at 4° C. with 25 μL of a mixed bead solution. After washing, samples were incubated with 25 μL detection antibody solution for 1.5 hours at room temperature. Streptavidin-phycoerythrin (25 μL) was added to each well containing the 25 μL of detection antibody solution. Samples were then washed and suspended in 100 μL of sheath fluid. Samples were then run on MAGPIX with Xponent software. The median fluorescent intensity (MFI) data were analyzed using a 5-parameter logistic or spline curve-fitting method for calculating analyte concentrations in samples. Specific alpha-synuclein ELISAs were performed on tissue soluble extracts from midbrain lysates in 1XSTEN buffer. The ELISA for USP13 (MyBioSource, Cat # MBS9335287), Human alpha-synuclein (Biolegend, Cat #844101) and specific p-Tau ser396 (Invitrogen, KHB7031) were performed on cell or brain tissue extracts as described above according to manufacturers' protocol.

[1] = test system: human SHSY5Y neuroblastoma cells; experiment: Cell viability by MTT and LDH assays; conditions: 5 hours, up to 1 mM concentration
Experimental: Human SHSY-5Y neuroblastoma cells were cultured in Dulbecco's Modified Eagle's Medium (DMEM) (ThermoFisher Scientific; Waltham, MA) with 10% Fetal Bovine Serum (FBS) (ThermoFisher) and 1% Penicillin-Streptomycin (PenStrep, ThermoFisher) and incubated at 37° C. under atmospheric oxygen concentrations (21%) with 5% CO2. SHSY-5Y cells were cultured in DMEM with Ham's F12 (1:1) (ThermoFisher) with 20% FBS, 1% PenStrep. Cells were plated at a density tailored to reach 70-80% confluence at the beginning of every experiment. SH-SY5Y cells were transiently transfected for 24 hours with human wild-type α-synuclein using Fugene HD transfection reagent (Promega; Madison, WI) before fresh culture media and drug were added.
Cell viability was determined via lactate dehydrogenase assay on culture media, (ThermoFisher) and MTT assay on plated cells (ThermoFisher).

human USP13 = target: T1, human USP13 (Homo sapiens, UniProt Q92995); experiment: USP13 activity via ELISA in SHSY5Y cells; type: cell-based; conditions: for IC50: SHSY5Y cell line, estimated with GraphPad Prism, read-out: IC50 to inhibit USP13 activity; for USP13 activity via ELISA: SHSY5Y cells, 5 hours, concentration range of 1 nM-1 mM
T1 construct: USP13 activity via ELISA in human SHSY5Y neuroblastoma cells; endogenous in cells; host or cells: human SH-SY5Y neuroblastoma cells (transiently transfected with human wild-type alpha-synuclein, not with USP13)
T1 sequence (Q92995 1-863): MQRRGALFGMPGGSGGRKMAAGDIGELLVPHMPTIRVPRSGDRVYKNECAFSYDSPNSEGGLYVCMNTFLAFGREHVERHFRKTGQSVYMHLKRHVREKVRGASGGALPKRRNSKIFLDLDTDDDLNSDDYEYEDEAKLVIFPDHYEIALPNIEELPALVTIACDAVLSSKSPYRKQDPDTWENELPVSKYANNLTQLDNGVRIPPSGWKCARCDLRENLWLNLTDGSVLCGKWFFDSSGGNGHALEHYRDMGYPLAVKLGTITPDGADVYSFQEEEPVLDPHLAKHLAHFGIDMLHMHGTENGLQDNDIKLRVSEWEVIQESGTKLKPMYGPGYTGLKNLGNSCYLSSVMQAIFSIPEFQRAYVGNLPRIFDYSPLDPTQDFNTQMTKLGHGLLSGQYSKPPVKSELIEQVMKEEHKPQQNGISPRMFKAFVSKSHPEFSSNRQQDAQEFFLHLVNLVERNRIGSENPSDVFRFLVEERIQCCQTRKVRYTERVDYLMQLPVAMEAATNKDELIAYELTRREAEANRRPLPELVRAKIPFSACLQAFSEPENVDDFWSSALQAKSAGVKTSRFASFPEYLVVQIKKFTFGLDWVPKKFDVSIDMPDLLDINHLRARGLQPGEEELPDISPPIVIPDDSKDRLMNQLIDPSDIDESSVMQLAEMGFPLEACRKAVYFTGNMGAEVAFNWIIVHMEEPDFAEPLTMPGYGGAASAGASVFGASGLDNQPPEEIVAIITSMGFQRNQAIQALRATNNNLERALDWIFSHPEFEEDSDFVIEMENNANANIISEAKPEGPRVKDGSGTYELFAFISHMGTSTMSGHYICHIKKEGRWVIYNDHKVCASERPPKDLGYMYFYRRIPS
Experimental: as §1, §2
Statistical and Data Analysis. All statistical analyses were performed using GraphPad Prism version 5.0 (GraphPad software, Inc, San Diego, CA, USA). Two-tailed student's t-test was used in comparison of means of two groups. Ordinary one-way analysis of variance (ANOVA) followed by Newman-Keuls or Dunnett comparison post hoc tests were used in comparison of means of multiple groups. Asterisks denote actual p-value significances (*<0.05, **<0.01, ***<0.001 and ****<0.0001), and N is the number of animals or the number of independent experiments (cell culture) per group. Unless otherwise indicated, data are expressed as Mean±SD. IC50 to USP13 levels was also estimated using GraphPad Prism version 5.0 (GraphPad software, Inc, San Diego, CA, USA).

Structure (SMILES)	level of alpha-synuclein via ELISA (human alpha-synuclein)	cell death in two viability assays (MTT and LDH) [1]	IC50 (human USP13)	USP13 activity via ELISA (human USP13)
c1ccc(Nc2ccnc3ccsc23)cc1 [BK50118-A, N-Phenylthieno[3,2-b]pyridin-7-amine]	significantly reduce the level of alpha-synuclein	do not cause cell death	26 nM	significantly reduce the activity of human USP13
Fc1ccc2nccc(Nc3ccccc3)c2c1 [BK50118-B, 6-Fluoro-N-phenylquinolin-4-amine]	significantly reduce the level of alpha-synuclein	do not cause cell death	36.9 nM	significantly reduce the activity of human USP13
Fc1ccc2nccc(NCc3ccccc3)c2c1 [CL3-499, N-Benzyl-6-fluoroquinolin-4-amine]	significantly reduce the level of alpha-synuclein	do not cause cell death	1190 nM	significantly reduce the activity of human USP13
COC(=O)[C@H](Cc1ccccc1)Nc1c([N+](=O)[O-])c(=O)oc2ccccc12 [CL3-512, (S)-Methyl (3-nitro-2-oxo-2H-chromen-4-yl)-phenylalaninate]	significantly reduce the level of alpha-synuclein	do not cause cell death	1080 nM	significantly reduce the activity of human USP13
COC(=O)[C@H](Cc1ccc(O)cc1)Nc1c([N+](=O)[O-])c(=O)oc2ccccc12 [CL3-514, (S)-Methyl (3-nitro-2-oxo-2H-chromen-4-yl)-tyrosinate]	significantly reduce the level of alpha-synuclein	do not cause cell death	68.9 nM	significantly reduce the activity of human USP13
Fc1ccc(CNc2ncnc3ccc(F)cc23)cc1 [Spautin-1, reference compound]	–	–	600 to 700 nM	–
